In patent US20220387375A1, “TRPV1 ACTIVATION-MODULATING COMPLEX MIXTURES OF CANNABINOIDS AND/OR TERPENES” (GBS Global Biopharma, Inc., priority 2018, published 2022):

What was measured:
TRPV1 [1] = biological target: T1, TRPV1 (Rattus norvegicus, UniProt O35433); assay: Whole-cell patch clamp of TRPV1 currents in HEK293 cells overexpressing TRPV1 (HEK293-V1); format: cell-based; settings: for ion selectivity / state of TRPV1 activation: 10 μM capsaicin; for effect of increasing internal calcium (0, 180, 620 nM) on falling phase or inactivation kinetics: 10 μM myrcene, then 1 μM capsaicin; for time course of induced TRPV1 current (sustained or inactivating): cannabinoid at 50, 5 μM myrcene or 1 μM capsaicin
T1 construct: FLAG; expressed in transfected cells
Description: HEK TRexTRPV1 were cultured in DMEM, 10% Fetal Bovine Serum, 2 mM Lglutamine, 10 μg/ml Blasticidin (Calbiochem, San Diego Calif.), 400 μg/ml Zeocin (InvivoGen, San Diego Calif.), where indicated transgene expression was induced using 1 μg/ml Tetracycline for 16-24 hrs. Unless otherwise indicated, basal expression of TRPV1 without induction was sufficient for these studies, and comparisons were made to untransfected HEK where needed. HEKTRex293 over-expressing human TRPV2, human TRPA1 and human TRPM8 were obtained from SB Drug Discovery (Glasgow, Scotland) and cultured as described above. The cannabinoids and terpenes were assayed in HEK cells that have been transfected with the TRPV1 ion channel protein. These cells are called HEK293-V1 cells.
This technique is used to study ionic currents from HEK293-V1. The voltage across the cell membrane is controlled and the ionic currents associated with changes in voltage are measured. A micropipette tip is pulled to a few micrometers in diameter followed by heating the tip to produce a smooth surface that assists in forming a high resistance seal with the cell membrane. To obtain this high resistance seal, the micropipette is pressed against a cell membrane and suction is applied. The membrane then fuses onto the glass surface creating a high resistance in the gigaohm range. This makes it possible to isolate electronically the ionic currents measured across the membrane patch or across the entire cell.
Patch-clamp experiments were performed in the whole-cell configuration at 21-25° C. Patch pipettes had resistances of 2-3 MΩ. Data was acquired with PatchMaster software (HEKA, Lambrecht, Germany), controlling an EPC-9 amplifier. Voltage ramps of 50 ms spanning the voltage range from −100 to 100 mV were delivered from a holding potential of 0 mV at a rate of 0.5 Hz over a period of 500 ms to 180 seconds (3 minutes). Voltages were corrected for a liquid junction potential of 10 mV. Currents were filtered at 2.9 kHz and digitized at 100 μs intervals. Capacitive currents were determined and corrected before each voltage ramp. The development of currents for a given potential was extracted from individual ramp current records by measuring the current amplitudes at voltages of −80 mV and +80 mV. Data were analyzed with FitMaster (HEKA, Lambrecht, Germany), and IgorPro (WaveMetrics, Lake Oswego, Oreg., USA). Where applicable, statistical errors of averaged data are given as mean±s.e.m with n determinations. The activated current amplitudes are analyzed by nA rather than pA/pF. […] Also the cell size selected for patching was in the 9 -12 pF range.
For patch-clamp recordings, HEK293 cells were kept in a standard sodium-based external Ringer's solution containing (mM): 140 NaCl, 1 CaCl2, 2 MgCl2, 2.8 KCl, 11 glucose, 10 HEPES-NaOH with a pH of 7.2 and osmolarity of 300 mOsmol. To assess the effects of external Calcium (Ca) on TRPV1 inactivation kinetics, Ca at different levels were tested including 0, 1, and 3 mM. In Experiments with zero external Ca, EGTA 10 mM was added and the Na concentration was lowered to 130 mM to maintain standard osmotic conditions at 300 mOsmol. For rapid external solution application and exchanges we used the SmartSquirt delivery system (Auto-Mate Scientific, San Francisco Calif., USA) that included four cryo tubes allowing for solution exchanges within one patch. This system included a ValveLink TTL interface between the electronic valves and the EPC10 amplifier (HEKA, Lambrecht, Germany). This electronic configuration allowed for programmable solution changes via the PatchMaster software (HEKA, Lambrecht, Germany).

TRPV1 [2] = biological target: T1, TRPV1; assay: Bulk calcium assay (Fluo-4) in HEK-TRPV1 overexpressing cells; format: cell-based; settings: for TRPV1-mediated calcium influx compared to vehicle: terpene 10 μM, vehicle subtracted (FIG. 14)
Description: Cells were washed and incubated with 0.2 micromolar Fluo-4 for 30 minutes at 37° C. in a standard modified Ringer's solution of the following composition (in mM): NaCl 145, KCl 2.8, CsCl 10, CaCl2 10, MgCl2 2, glucose 10, Hepes·NaOH 10, pH 7.4, 330 mOsm. Cells were transferred to 96-well plates at 50,000 cells/well and stimulated as indicated. Calcium signals were acquired using a Flexstation 3 (Molecular Devices, Sunnydale, USA). Data was analyzed using SoftMax® Pro 5 (Molecular Devices). Where indicated, nomically calcium-free external conditions were achieved by the preparation of 0 mM CaCl2 Ringer solution containing 1 mM EGTA.
The cell culture system described in U.S. patent application Ser. No. 15/986,316 was used to test the TRPV1-mediated calcium response to various terpenes. The HEK293 cell line was stably transfected with the pcDNA6TR (Invitrogen, CA) plasmid (encoding the tetracycline-sensitive TREx repressor protein), and was maintained in DMEM+10% fetal bovine serum (inactivated at 55° C. for 1 h)+2 mM glutamine in humidified 5% CO2 atmosphere at 37° C. Selection pressure on the TRex 293 cells was maintained by continuous culture in 10 μg/ml Blasticidin (Sigma, St Louis, Mo.).
For production of TRex HEK293 cells with inducible expression of TRPV1, parental cells were electroporated with the rat TRPV1 cDNA in the pcDNA4TO vector and clonal cell lines were selected by limiting dilution in the presence of 400 μg/ml zeocin (Invitrogen, CA). TRPV1 expression was induced using 1 μg/ml tetracycline for 16 h at 37° C. Stable lines were screened for inducible protein expression using anti-FLAG Western blot, and inducible expression was confirmed.
Calcium responses mediated by TRPV1 were tested by calcium assay in the cell culture system. Cells were washed and incubated with 0.2 μM fluo-4 acetoxymethyl ester (“Fluo-4”) for 30 minutes at 37° C. in a standard modified Ringer's solution of the following composition (in mM): NaCl 145, KCl2.8, CsCl10, CaCl2 10, MgCl2 2, glucose 10, Hepes·NaOH 10, pH 7.4, 330 mOsm. Cells were transferred to 96-well plates at 50,000 cells/well and stimulated as indicated. The terpenes used were alpha-bisabool, alpha-pinene, myrcene, camphene, linalool, ocimene, humulene, beta-caryophyllene, beta-pinene, limonene, and nerolidol. The terpenes were diluted in DMSO and added to the wells to a final concentration of 10 μM. Vehicle (DMSO) alone was run as a negative control and subtracted from the terpene traces. Calcium signals were acquired using a Flexstation 3 (Molecular Devices, Sunnydale, USA). Data was analyzed using SoftMax® Pro 5 (Molecular Devices).
Calcium responses mediated by TRPA1, TRPM8, TRPV2, and TRPV1 were tested by calcium assay in the cell culture system. Cells were washed and incubated with 0.2 μM fluo-4 acetoxymethyl ester (“Fluo-4”) for 30 minutes at 37° C. in a standard modified Ringer's solution of the following composition (in mM): NaCl 145, KCl 2.8, CsCl 10, CaCl2 10, MgCl2 2, glucose 10, Hepes·NaOH 10, pH 7.4, 330 mOsm. Cells were transferred to 96-well plates at 50,000 cells/well and stimulated with 10 μM myrcene diluted in DMSO. Vehicle (DMSO) was used as a negative control. Vehicle traces were subtracted from the myrcene traces for each cell line.
As shown in FIGS. 16A-H, a variety of cannabinoids were capable of initiating Ca^2+ fluxes in HEK-TRPV1 overexpressing cells, except for cannabigerol and cannabinol. Comparative responses to a single dose (10 μM concentration) of a variety of cannabinoids were made in the presence of 1 mM external Ca^2+, which are population-based, or bulk Ca^2+, measurements with each trace representing averaged triplicates of 100,000 cells per sample. […] For each of the cannabinoid compounds, dose responses at the population level were performed. […] The lower limit of detectable calcium responses in this system varied from 10-100 nM (CBDV, CBGA) to 1-10 μM.

T1 sequence (O35433 whole entry): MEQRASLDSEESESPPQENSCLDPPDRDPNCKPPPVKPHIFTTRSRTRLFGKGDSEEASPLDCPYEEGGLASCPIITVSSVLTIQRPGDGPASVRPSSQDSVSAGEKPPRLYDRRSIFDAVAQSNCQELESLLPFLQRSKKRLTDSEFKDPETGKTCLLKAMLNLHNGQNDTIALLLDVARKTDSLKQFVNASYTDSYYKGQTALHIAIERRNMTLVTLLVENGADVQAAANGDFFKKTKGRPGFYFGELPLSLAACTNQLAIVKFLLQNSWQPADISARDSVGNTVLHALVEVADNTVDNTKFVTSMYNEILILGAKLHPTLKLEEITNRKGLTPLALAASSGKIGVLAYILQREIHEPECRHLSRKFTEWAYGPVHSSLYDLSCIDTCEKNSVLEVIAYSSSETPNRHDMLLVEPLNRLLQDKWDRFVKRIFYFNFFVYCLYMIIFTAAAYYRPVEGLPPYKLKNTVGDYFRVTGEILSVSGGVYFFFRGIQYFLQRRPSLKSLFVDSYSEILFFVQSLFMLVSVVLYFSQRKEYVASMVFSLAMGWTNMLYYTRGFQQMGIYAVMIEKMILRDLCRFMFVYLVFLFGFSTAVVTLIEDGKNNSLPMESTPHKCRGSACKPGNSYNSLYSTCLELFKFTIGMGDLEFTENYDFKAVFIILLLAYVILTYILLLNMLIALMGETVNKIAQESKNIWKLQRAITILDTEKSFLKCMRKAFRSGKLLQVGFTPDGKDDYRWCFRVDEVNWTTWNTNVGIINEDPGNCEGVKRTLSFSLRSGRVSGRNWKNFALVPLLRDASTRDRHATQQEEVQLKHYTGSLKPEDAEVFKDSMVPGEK

What does the source list for Oc1cc2c(cc1O)CN(C(=S)NCCc1ccc(Cl)cc1)CCC2 [Capsazepine, reference compound]?
effect on capsaicin-induced TRPV1 current (TRPV1 [1]; CPZ 10 μM for 30 seconds after 50 nM Capsaicin for 60 seconds): reduced both the inward and outward currents; effect on capsaicin-activated TRPV1 channel (state 1 and state 2) (TRPV1 [1]; CPZ added after 10 μM capsaicin): rapid TRPV1 channel deactivation; effect on CBD-induced TRPV1 current (TRPV1 [1]; CPZ application 30 seconds after CBD 30 μM): reduced

How did the “TRPV1-mediated calcium influx compared to vehicle” value (TRPV1 [2]) turn out when CC(C)=CCC[C@](C)(O)[C@@H]1CC=C(C)CC1 [alpha-bisabool] was run?
Its value is “little to no calcium influx”.

CC1=CCC2CC1C2(C)C (stereo not drawn) [alpha-pinene] was tested. Which “TRPV1-mediated calcium influx compared to vehicle” value (TRPV1 [2]) did it give?
The value was “little to no calcium influx”.

C=C1CC/C=C(\C)CC[C@@H]2[C@@H]1CC2(C)C [beta-caryophyllene] was tested. Which “TRPV1-mediated calcium influx compared to vehicle” value (TRPV1 [2]) did it give?
Its value is “little to no calcium influx”.

C=C1CCC2CC1C2(C)C (stereo not drawn) [beta-pinene] was tested. Which “TRPV1-mediated calcium influx compared to vehicle” value (TRPV1 [2]) did it give?
The value was “little to no calcium influx”.

C=C1C2CCC(C2)C1(C)C (stereo not drawn) [camphene] was tested. Which “TRPV1-mediated calcium influx compared to vehicle” value (TRPV1 [2]) did it give?
Its value is “little to no calcium influx”.

Which current induced (TRPV1 [1]; 1 μM capsaicin (not shown), comparison to myrcene) does the source give for COc1cc(CNC(=O)CCCC/C=C/C(C)C)ccc1O [capsaicin, Capsaicin, reference compound] here?
The current induced was 4-10 nA.

And the “ion selectivity / state of TRPV1 activation” value (TRPV1 [1]; absence of internal BAPTA and Ca2+)?
The value was “Ca^2 ion selective TRPV1 activation”.

And the “ion selectivity / state of TRPV1 activation” value (TRPV1 [1]; presence of internal 10 mM BAPTA and 150 nM Ca2+)?
The value was “Na^+ ion selective TRPV1 activation”.

What about the “effect of increasing internal calcium (0, 180, 620 nM) on falling phase or inactivation kinetics” value (TRPV1 [1]) of the same molecule?
Its value is “stronger effect”.

And the “type of TRPV1 current recorded” value (TRPV1 [1]; Capsaicin 50 nM for 60 seconds, Ca 0 internally and externally)?
The value was “outwardly rectifying TRPV1 current”.

What about the “rectification of current (resulted in rectifying currents or not)” value (TRPV1 [1]; Capsaicin 500 nM) of the same molecule?
The value was “did not”.

And the rectification of current (TRPV1 [1]; Capsaicin low (30 nM) and medium (100 nM) doses)?
The rectification of current was “rectifying currents”.

And the “IV relationship / TRPV1 channel state” value (TRPV1 [1]; after 1 μM capsaicin)?
Its value is “linear due to TRPV1 transitioning to the dilated state (state 2)”.

And the “time course of induced TRPV1 current (sustained or inactivating)” value (TRPV1 [1])?
Its value is “sustained”.

C/C1=C\CC/C(C)=C/CC(C)(C)/C=C/C1 [humulene] was tested. Which “TRPV1-mediated calcium influx compared to vehicle” value (TRPV1 [2]) did it give?
Its value is “little to no calcium influx”.

How did the “TRPV1-mediated calcium influx compared to vehicle” value (TRPV1 [2]) turn out when C=C(C)[C@H]1CC=C(C)CC1 [limonene] was run?
The value was “little to no calcium influx”.

How did the “TRPV1-mediated calcium influx compared to vehicle” value (TRPV1 [2]) turn out when C=CC(C)(O)CCC=C(C)C (stereo not drawn) [linalool] was run?
Its value is “little to no calcium influx”.

C=CC(=C)CCC=C(C)C [myrcene, 7-methyl-3-methylideneocta-1,6-diene] was tested. Which “activation of cells overexpressing TRPV1 (calcium entry)” value (TRPV1 [2]; 10 μM myrcene) did it give?
The value was “activated”.

And the “TRPV1-mediated calcium influx compared to vehicle” value (TRPV1 [2])?
Its value is “greatest amount of calcium influx”.

What about the inward current induced (TRPV1 [1]; 5 μM myrcene, average of 6 independent experiments) of the same molecule?
Its inward current induced is “approximately 0.5 nA”.

And the “effect of increasing internal calcium (0, 180, 620 nM) on falling phase or inactivation kinetics” value (TRPV1 [1])?
Its value is “minor effect”.

What about the “IV relationship / TRPV1 channel state” value (TRPV1 [1]; 50 μM myrcene (FIG. 10C)) of the same molecule?
Its value is “state 1”.

What about the “IV relationship / TRPV1 channel state” value (TRPV1 [1]; 150 μM myrcene (FIG. 11)) of the same molecule?
Its value is “state 1”.

And the “time course of induced TRPV1 current (sustained or inactivating)” value (TRPV1 [1])?
The value was “rapidly inactivating”.

What about the current induced (TRPV1 [1]; myrcene 5 μM, 10 μM and 150 μM (FIGS. 8A-8C)) of the same molecule?
Its current induced is 0.5-2.2 nA.

For C=CC(C)(O)CCC=C(C)CCC=C(C)C (stereo not drawn) [nerolidol], which “TRPV1-mediated calcium influx compared to vehicle” value (TRPV1 [2]) is on record?
The value was “brief initial calcium influx”.

How did the “TRPV1-mediated calcium influx compared to vehicle” value (TRPV1 [2]) turn out when C=CC(C)=CCC=C(C)C [ocimene] was run?
Its value is “little to no calcium influx”.
